Earlier results, collected in patent US20190231795A1, “METHODS FOR TREATING CANCER AND PREDICTING DRUG RESPONSIVENESS IN CANCER PATIENTS” (LiPlasome Pharma ApS, priority 2018, published 2019).

Key:
[1] = system: metastatic breast cancer
[2] = system: DNA platinum adducts (GG-Pt) in tumor tissue; conditions: comparison value

In the case of N.N.[Cl][Pt][Cl] [conventional cisplatin, cisplatin], the response rate [1] is listed as 10% and the “increase of DNA-platinum (GG-Pt) in tumor tissue seen with conventional cisplatin” value [2] is listed as 4-6 fold.
